Assay results from patent publication US20240197728A1, “METHODS AND PHARMACEUTICAL COMPOSITIONS FOR TREATING REFRACTORY EPILEPSY” (INSERM (INSTITUT NATIONAL DE LA SANTÉ ET DE LA RECHERCHE …, priority 2021, published 2024).

Test system: lithium-pilocarpine model of mTLE
Assay: Lithium-pilocarpine mouse model of mTLE, telemetric ECoG seizure detection
Type: in vivo, C57Bl6/J mice
Conditions: PCPZ 2 mg/kg i.p. twice daily
Description: Our procedures were all approved by local ethics committee (Charles Darwin, Apafis 202008050923999 v4). 8 weeks-old male C57B16/J mice were used in a pilocarpine-based model of temporal lobe epilepsy as described. In brief, animals received an intraperitoneal (ip) injection of LiCl (423 mg/kg) and scopolamine (1 mg/kg), respectively 18-24 hours and 1 hour prior to pilocarpine. Pilocarpine (75 mg/kg) was then injected ip and mice were continuously monitored for the onset of status epilepticus (SE). In mice in which the first pilocarpine injection had not triggered SE after one hour, a second injection at 20 mg/kg was performed. SE was interrupted one hour after onset by ip injection of diazepam and ketamine (both at 10 mg/kg). […] They were monitored daily for weight, behavior and were provided with enriched liquid food (Fortimel Energy®) for the first 5-7 days post SE. […]
ECoG probe implantation was performed 28 days post SE in all mice except for 1 mouse that was implanted prior to SE induction in order to monitor chronic seizure onset (FIG. 6D). […] One week after implantation, ECoG signal (0.3-160 Hz) were recorded continuously using a telemetric Octal Data Receiver (OpenSourceInstruments), amplified 100× and acquired at 512 Hz. Recordings were analyzed offline using Event Classification Processor ECP20 under NeuroArchiver 132. […]

SMILES: CN1CCN(CCCN2c3ccccc3Sc3ccc(Cl)cc32)CC1 [PCPZ, prochlorperazine]
- seizure frequency (chronic phase days 40-45 post-SE, saline group 2.86±0.83): 0.95±0.42 per day
- reduction in seizure frequency compared to saline control group (days 40-45 post-SE): 3 fold
